From the supplement of paper PMC11208160 come the findings set out here.
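Also: IS621 recombinase and bridge RNA in Escherichia coli cells.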

The series is described as follows: recombinant barcode read abundance after kanamycin selection (control-corrected) (log10(CPM+1)); higher = more efficient recombination; sequences stand for … in AGTGCAGAGAAAATCGGCCAGTTTTCTCTGCCTGCAGTCCGCATGCCGT…AGATTTATGCAGCGGACTGCCTTTCTCCCAAAGTGATAAACCGGACAGTATCATGGACCGGTTTTCCCGGTAATCCGTATTTGCAAGGTTGGTTTCACT; site = the 11-nt target. As to the method: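 Pooled E. coli target-specificity screen for the IS621 bridge recombinase. Each library plasmid pairs an 11-nt target (CT core) with a bridge RNA whose target-binding loop (9-nt LTG + 4-nt RTG) is reprogrammed; the rest of the 177-nt WT IS621 bridge RNA scaffold is fixed. The plasmid is co-electroporated with a WT donor plasmid; recombinase is induced with 0.1 mM IPTG and recombinants are selected on kanamycin. Recombinant barcodes are sequenced, converted to CPM, averaged over two biological replicates and corrected by the unselected control CPM. Molecule = full bridge RNA written as DNA: LTG = specificity nt 1-9, RTG = reverse complement of specificity nt 8-11, in the WT scaffold.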
As to “AAGATCACTTGGGTTCTAACCTGTTGCGG (site AAGATCACTCC)”, the “recombinant barcode read abundance (log10)” value was 2.36.

As to “AAGATCACTTGGGTTCTAACCTGTTGCGG (site TTACATGCTAG)”, the “recombinant barcode read abundance (log10)” value worked out at 0.026.

As to “AAGCAAACTTGGGTTCTAACCTGTTGCCT (site AAGCAAACTAG)”, the “recombinant barcode read abundance (log10)” value was found to be 0.66.

Regarding “AAGCAAACTTGGGTTCTAACCTGTTGCCT (site AAGCCAACTAG)”, the “recombinant barcode read abundance (log10)” value was 0.0799.

Regarding “AAGCAAACTTGGGTTCTAACCTGTTGCCT (site AAGCGAACTAG)”, the “recombinant barcode read abundance (log10)” value was determined as 0.22.

With “AAGCAAACTTGGGTTCTAACCTGTTGCCT (site AAGCTAACTAG)”, the “recombinant barcode read abundance (log10)” value was found to be 0.218.

In the case of “AAGCAATCTTGGGTTCTAACCTGTTGCCT (site AAGCAATCTAG)”, the “recombinant barcode read abundance (log10)” value is 0.927.

Turning to “AAGCAATCTTGGGTTCTAACCTGTTGCCT (site AAGCACTCTAG)”, the “recombinant barcode read abundance (log10)” value was determined as 0.159.

Take “AAGCAATCTTGGGTTCTAACCTGTTGCCT (site AAGCAGTCTAG)”: the “recombinant barcode read abundance (log10)” value is 0.0406.

On to “AAGCAATCTTGGGTTCTAACCTGTTGCCT (site AAGCATTCTAG)”, for which the “recombinant barcode read abundance (log10)” value stood at 0.126.

On to “AAGCCACCTTGGGTTCTAACCTGTTGCCT (site AAGCCACCTAG)”, for which the “recombinant barcode read abundance (log10)” value is 2.3.

Turning to “AAGCCACCTTGGGTTCTAACCTGTTGCCT (site CAGCCACCTAG)”, the “recombinant barcode read abundance (log10)” value worked out at 0.126.

In the case of “AAGCCACCTTGGGTTCTAACCTGTTGCCT (site GAGCCACCTAG)”, the “recombinant barcode read abundance (log10)” value turned out to be 0.392.

For the sequence “AAGCCACCTTGGGTTCTAACCTGTTGCCT (site TAGCCACCTAG)”, the “recombinant barcode read abundance (log10)” value worked out at 1.31.

“AAGCGTCCTTGGGTTCTAACCTGTTGCCT (site AAGCGTACTAG)”: the “recombinant barcode read abundance (log10)” value was 0.384.

On to “AAGCGTCCTTGGGTTCTAACCTGTTGCCT (site AAGCGTCCTAG)”, for which the “recombinant barcode read abundance (log10)” value worked out at 1.24.

In the case of “AAGCGTCCTTGGGTTCTAACCTGTTGCCT (site AAGCGTGCTAG)”, the “recombinant barcode read abundance (log10)” value turned out to be 0.583.

Regarding “AAGCGTCCTTGGGTTCTAACCTGTTGCCT (site AAGCGTTCTAG)”, the “recombinant barcode read abundance (log10)” value came out at 0.06.

“AAGCTTGCTTGGGTTCTAACCTGTTGCCT (site AAGCTTGCTAG)”: the “recombinant barcode read abundance (log10)” value amounted to 1.1.

For the sequence “AAGCTTGCTTGGGTTCTAACCTGTTGCCT (site CGATGGACTCA)”, the “recombinant barcode read abundance (log10)” value was 0.315.

On to “AAGGACGCTTGGGTTCTAACCTGTTGCCT (site AAGGACGCTAG)”, for which the “recombinant barcode read abundance (log10)” value was determined as 2.72.

With “AAGGACGCTTGGGTTCTAACCTGTTGCCT (site AAGGCCGCTAG)”, the “recombinant barcode read abundance (log10)” value was determined as 0.241.

Regarding “AAGGACGCTTGGGTTCTAACCTGTTGCCT (site AAGGGCGCTAG)”, the “recombinant barcode read abundance (log10)” value was determined as 0.309.

In the case of “AAGGACGCTTGGGTTCTAACCTGTTGCCT (site AAGGTCGCTAG)”, the “recombinant barcode read abundance (log10)” value was 0.0217.

In the case of “AAGGGTTCTTGGGTTCTAACCTGTTGCCA (site AAGGGTTCTTG)”, the “recombinant barcode read abundance (log10)” value is 1.78.

In the case of “AAGGGTTCTTGGGTTCTAACCTGTTGCCA (site ACGGGTACTTG)”, the “recombinant barcode read abundance (log10)” value came to 0.0285.

As to “AAGGTTCCTTGGGTTCTAACCTGTTGCTA (site AAGGTCCCTTG)”, the “recombinant barcode read abundance (log10)” value was determined as 0.0242.

“AAGGTTCCTTGGGTTCTAACCTGTTGCTA (site AAGGTTCCTTA)”: the “recombinant barcode read abundance (log10)” value is 1.73.

Regarding “AAGTACACTTGGGTTCTAACCTGTTGCTG (site AAGTACACTCA)”, the “recombinant barcode read abundance (log10)” value is 2.75.

As for “AAGTACACTTGGGTTCTAACCTGTTGCTG (site CGACTGTCTAG)”, the “recombinant barcode read abundance (log10)” value was found to be 0.0537.

Take “AAGTGCTCTTGGGTTCTAACCTGTTGCCT (site AAGTGCTCTAG)”: the “recombinant barcode read abundance (log10)” value came to 2.34.

For the sequence “AAGTGCTCTTGGGTTCTAACCTGTTGCCT (site ACGTGCTCTAG)”, the “recombinant barcode read abundance (log10)” value is 0.129.

Regarding “AAGTGCTCTTGGGTTCTAACCTGTTGCCT (site AGGTGCTCTAG)”, the “recombinant barcode read abundance (log10)” value was 0.124.

Take “AAGTGCTCTTGGGTTCTAACCTGTTGCCT (site ATGTGCTCTAG)”: the “recombinant barcode read abundance (log10)” value was 0.127.

For “AAGTGTCCTTGGGTTCTAACCTGTTGCAT (site AAGTGTCCTAT)”, the “recombinant barcode read abundance (log10)” value amounted to 1.73.

As to “AAGTGTCCTTGGGTTCTAACCTGTTGCAT (site AAGTTTCCTAT)”, the “recombinant barcode read abundance (log10)” value was determined as 0.0208.

As for “AAGTTTACTTGGGTTCTAACCTGTTGCTT (site AAGTTTACTAA)”, the “recombinant barcode read abundance (log10)” value came to 0.177.

Take “AAGTTTACTTGGGTTCTAACCTGTTGCTT (site AAGTTTACTAG)”: the “recombinant barcode read abundance (log10)” value was 0.0137.

As for “AAGTTTCCTTGGGTTCTAACCTGTTGCGT (site AAGTTTCCTAC)”, the “recombinant barcode read abundance (log10)” value came out at 0.923.

With “AAGTTTCCTTGGGTTCTAACCTGTTGCGT (site ACGTTTCCTAT)”, the “recombinant barcode read abundance (log10)” value is 0.102.

As to “AATACCTCTTGGGTTCTAACCTGTTGCCT (site AATACCTCTAG)”, the “recombinant barcode read abundance (log10)” value stood at 1.03.

Regarding “AATACCTCTTGGGTTCTAACCTGTTGCCT (site ACTACCTCTAG)”, the “recombinant barcode read abundance (log10)” value worked out at 0.0183.

As to “AATACCTCTTGGGTTCTAACCTGTTGCCT (site AGTACCTCTAG)”, the “recombinant barcode read abundance (log10)” value was 0.0751.

Turning to “AATACCTCTTGGGTTCTAACCTGTTGCCT (site ATTACCTCTAG)”, the “recombinant barcode read abundance (log10)” value worked out at 0.0243.

As for “AATACTACTTGGGTTCTAACCTGTTGCCT (site AATACTACTAG)”, the “recombinant barcode read abundance (log10)” value came to 1.04.

In the case of “AATACTACTTGGGTTCTAACCTGTTGCCT (site ACTACTACTAG)”, the “recombinant barcode read abundance (log10)” value was 0.0229.

“AATACTACTTGGGTTCTAACCTGTTGCCT (site AGTACTACTAG)”: the “recombinant barcode read abundance (log10)” value turned out to be 0.0104.

Consider “AATACTACTTGGGTTCTAACCTGTTGCCT (site ATTACTACTAG)”, for which the “recombinant barcode read abundance (log10)” value was determined as 0.

Regarding “AATACTACTTGGGTTCTAACCTGTTGCTG (site AATACTACTCA)”, the “recombinant barcode read abundance (log10)” value amounted to 0.256.

For “AATACTACTTGGGTTCTAACCTGTTGCTG (site AGTACTCCTCA)”, the “recombinant barcode read abundance (log10)” value came to 0.196.

As for “AATAGTGCTTGGGTTCTAACCTGTTGCCT (site AATAGTGCTAG)”, the “recombinant barcode read abundance (log10)” value was 0.203.

In the case of “AATAGTGCTTGGGTTCTAACCTGTTGCCT (site ACTAGTGCTAG)”, the “recombinant barcode read abundance (log10)” value stood at 0.101.

As to “AATAGTGCTTGGGTTCTAACCTGTTGCCT (site AGTAGTGCTAG)”, the “recombinant barcode read abundance (log10)” value is 0.176.

“AATAGTGCTTGGGTTCTAACCTGTTGCCT (site ATTAGTGCTAG)”: the “recombinant barcode read abundance (log10)” value is 0.045.

As for “AATCGAACTTGGGTTCTAACCTGTTGCCT (site AATCGAACTAG)”, the “recombinant barcode read abundance (log10)” value was determined as 0.297.

Regarding “AATCGAACTTGGGTTCTAACCTGTTGCCT (site GATCGAACTAG)”, the “recombinant barcode read abundance (log10)” value was found to be 0.15.

Turning to “AATCTAACTTGGGTTCTAACCTGTTGCCT (site AATCTAACTAG)”, the “recombinant barcode read abundance (log10)” value worked out at 0.527.

On to “AATCTAACTTGGGTTCTAACCTGTTGCCT (site GGCGCCTCTGC)”, for which the “recombinant barcode read abundance (log10)” value came to 0.538.

As to “AATCTGTCTTGGGTTCTAACCTGTTGCGT (site AATCTGTCTAC)”, the “recombinant barcode read abundance (log10)” value was found to be 1.8.

For the sequence “AATCTGTCTTGGGTTCTAACCTGTTGCGT (site TAGCTGTCTAC)”, the “recombinant barcode read abundance (log10)” value was determined as 0.149.

With “AATGATTCTTGGGTTCTAACCTGTTGCGT (site AATGATTCTAC)”, the “recombinant barcode read abundance (log10)” value is 2.27.

Turning to “AATGATTCTTGGGTTCTAACCTGTTGCGT (site GGGCCGGCTCG)”, the “recombinant barcode read abundance (log10)” value was 0.433.

For “AATGCATCTTGGGTTCTAACCTGTTGCCT (site AATGAATCTAG)”, the “recombinant barcode read abundance (log10)” value was found to be 0.0891.

With “AATGCATCTTGGGTTCTAACCTGTTGCCT (site AATGCATCTAG)”, the “recombinant barcode read abundance (log10)” value was found to be 0.285.

Turning to “AATGCATCTTGGGTTCTAACCTGTTGCCT (site AATGGATCTAG)”, the “recombinant barcode read abundance (log10)” value amounted to 0.054.

For “AATGCATCTTGGGTTCTAACCTGTTGCCT (site AATGTATCTAG)”, the “recombinant barcode read abundance (log10)” value is 0.0299.

Turning to “AATGCTACTTGGGTTCTAACCTGTTGCCA (site AAAACTACTTG)”, the “recombinant barcode read abundance (log10)” value came to 0.127.

Turning to “AATGCTACTTGGGTTCTAACCTGTTGCCA (site AATGCTACTTG)”, the “recombinant barcode read abundance (log10)” value is 0.266.

Take “AATGGATCTTGGGTTCTAACCTGTTGCCT (site AATGAATCTAG)”: the “recombinant barcode read abundance (log10)” value was found to be 0.0825.

Consider “AATGGATCTTGGGTTCTAACCTGTTGCCT (site AATGCATCTAG)”, for which the “recombinant barcode read abundance (log10)” value is 0.0416.

In the case of “AATGGATCTTGGGTTCTAACCTGTTGCCT (site AATGGATCTAG)”, the “recombinant barcode read abundance (log10)” value was 1.01.

As to “AATGGATCTTGGGTTCTAACCTGTTGCCT (site AATGTATCTAG)”, the “recombinant barcode read abundance (log10)” value was 0.0683.

Turning to “AATGGGTCTTGGGTTCTAACCTGTTGCCT (site AATGGGACTAG)”, the “recombinant barcode read abundance (log10)” value worked out at 0.0612.
